Experimental data reported in patent US9606132B2, “Methods of monitoring adherence to lurasidone therapy” (Ameritox, Ltd., priority 2013, dated 2017).
Read-outs that look alike come from different tables or passages of the source.

Tests used:
[1] = in vivo
Experimental: Urine samples of normally metabolizing human subjects who were known to be taking chronic doses of lurasidone were tested for the presence of lurasidone and eleven metabolites (excluding isomeric metabolites). Each patient sample was analyzed twice to ensure accuracy. Due to the high probability for false identification of isobars, MS/MS data was collected and selectively looked at to add confidence to the identification.

[2] = cited from earlier work; for presence in serum: mice, rats, dogs (M8 also monkeys), 10 mg/kg oral administration of radiolabelled lurasidone
[3] = cited from earlier work; for presence in serum: 40 mg oral dosing of radiolabelled lurasidone

## O=C(O)C1CCCCC1CN1C(=O)C2C(C1=O)[C@@H]1CC[C@H]2C1O (some centres unmarked) [M5]
[1]; human
  detectability in human urine (Example 1): neither metabolite ID-20220 (M5) nor metabolite ID-20219 (M11) were found to be excreted through human urine in detectable amounts

## O=C1C2C(C(=O)N1CC1CCCCC1CN1CCN(c3nsc4ccccc34)CC1)[C@@H]1CC[C@H]2C1O (some centres unmarked) [M8/M9, Hydroxy-Lurasidone]
[1]
  detectability in human urine (Example 1): present in detectable quantities in each test of each subject's urine sample

## O=C1C2C(C(=O)N1CC1CCCCC1CN1CCN(c3nsc4ccccc34)CC1)[C@@H]1CC[C@H]2C1O (some centres unmarked) [M8]
[2]
  presence in serum: present in an unspecified low amount
[3]; humans
  presence in serum: present in an unspecified low amount

## O=C1C2C(C(=O)N1CC1CCCCC1CN1CCN(c3nsc4ccccc34)CC1)[C@@H]1CC[C@H]2C1O (some centres unmarked) [M9]
[2]; rats and dogs
  identification in serum: identified in rats and dogs

## O=C1C2C(C(=O)N1CC1CCCCC1CN1CCN(c3n[s+]([O-])c4ccccc34)CC1)[C@H]1CC[C@@H]2C1 (some centres unmarked) [M10]
[1]
  detectability in human urine (Example 1): not present at any significant amount

## O=C(O[C@@H]1O[C@H](C(=O)O)[C@@H](O)[C@H](O)[C@H]1O)C1CCCCC1CN1C(=O)C2C(C1=O)[C@H]1CC[C@@H]2C1 (some centres unmarked) [M11 Gluc]
[1]
  Lurasidone Metabolite Distribution in Human Urine (qualitative identification): ✓*

## O=C(O)C1CCCCC1CN1C(=O)C2C(C1=O)[C@H]1CC[C@@H]2C1 (some centres unmarked) [M11, 2-{(3,5-Dioxo-4-azatricyclo[5.2.1.0^2,6]dec-4-yl)methyl}cyclohexanecarboxylic acid]
[3]; plasma, post oral dosing
  share of total radioactivity in plasma: 24%
[1]; human
  detectability in human urine (Example 1): neither metabolite ID-20220 (M5) nor metabolite ID-20219 (M11) were found to be excreted through human urine in detectable amounts
[1]
  Lurasidone Metabolite Distribution in Human Urine (qualitative identification): ✓^*

## CSc1ccccc1C(=N)N1CCN(CC2CCCCC2CN2C(=O)C3C(C2=O)[C@H]2CC[C@@H]3C2)CC1 (some centres unmarked) [M21, S-Methyl Lurasidone]
[2]; any of the animal models, radiolabelled lurasidone
  detection as circulating metabolite in serum: did not detect
[1]
  detectability in human urine (Example 1): present in detectable quantities in each test of each subject's urine sample

## [H]/N=C(/c1ccccc1SC)N1CCN(CC2CCCCC2CN2C(=O)C3C(C2=O)[C@@H]2CC[C@H]3C2O)CC1 (some centres unmarked) [M22, S-Methyl Hydroxy Lurasidone]
[2]
  presence in serum: present in an unspecified low amount
[2]; rabbits or monkeys
  detection in other animal models: not detected in any amount
[3]; humans
  presence in serum: present in an unspecified low amount
  share of total drug-related exposure: less than 10%
[1]
  detectability in human urine (Example 1): present in detectable quantities in each test of each subject's urine sample
